Reference: patent US9434711B2 (Janssen Pharmaceutica, NV, priority 2007, dated 2016)

Molecular target: canine TRPM8 (Canis lupus familiaris, UniProt Q1A7N1)
Assay: In Vitro Canine TRPM8 Functional Assay (Ca2+ fluorescence, icilin activation)
Assay type: cell-based
Conditions: for IC50: HEK293 cells stably expressing canine TRPM8, icilin activation, eight-point dose-response, read-out: IC50; for inhibition at 0.2 µM / % Inh @ 0.2 (μM): compound at 0.2 μM, canine TRPM8, icilin activation; for inhibition at 0.2 µM: read-out: % Inh @ 0.2
Method in brief: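 HEK293 cells stably expressing canine TRPM8 were loaded with Calcium 3 dye (35 min at 37 °C, then 25 min at room temperature). Compound was added and Ca2+ fluorescence was read for 5 min before icilin at a concentration giving about 80% maximal response. EC50/IC50 came from eight-point dose-response curves, quadruplicate wells.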

Sequence of canine TRPM8 (Q1A7N1 1-1104): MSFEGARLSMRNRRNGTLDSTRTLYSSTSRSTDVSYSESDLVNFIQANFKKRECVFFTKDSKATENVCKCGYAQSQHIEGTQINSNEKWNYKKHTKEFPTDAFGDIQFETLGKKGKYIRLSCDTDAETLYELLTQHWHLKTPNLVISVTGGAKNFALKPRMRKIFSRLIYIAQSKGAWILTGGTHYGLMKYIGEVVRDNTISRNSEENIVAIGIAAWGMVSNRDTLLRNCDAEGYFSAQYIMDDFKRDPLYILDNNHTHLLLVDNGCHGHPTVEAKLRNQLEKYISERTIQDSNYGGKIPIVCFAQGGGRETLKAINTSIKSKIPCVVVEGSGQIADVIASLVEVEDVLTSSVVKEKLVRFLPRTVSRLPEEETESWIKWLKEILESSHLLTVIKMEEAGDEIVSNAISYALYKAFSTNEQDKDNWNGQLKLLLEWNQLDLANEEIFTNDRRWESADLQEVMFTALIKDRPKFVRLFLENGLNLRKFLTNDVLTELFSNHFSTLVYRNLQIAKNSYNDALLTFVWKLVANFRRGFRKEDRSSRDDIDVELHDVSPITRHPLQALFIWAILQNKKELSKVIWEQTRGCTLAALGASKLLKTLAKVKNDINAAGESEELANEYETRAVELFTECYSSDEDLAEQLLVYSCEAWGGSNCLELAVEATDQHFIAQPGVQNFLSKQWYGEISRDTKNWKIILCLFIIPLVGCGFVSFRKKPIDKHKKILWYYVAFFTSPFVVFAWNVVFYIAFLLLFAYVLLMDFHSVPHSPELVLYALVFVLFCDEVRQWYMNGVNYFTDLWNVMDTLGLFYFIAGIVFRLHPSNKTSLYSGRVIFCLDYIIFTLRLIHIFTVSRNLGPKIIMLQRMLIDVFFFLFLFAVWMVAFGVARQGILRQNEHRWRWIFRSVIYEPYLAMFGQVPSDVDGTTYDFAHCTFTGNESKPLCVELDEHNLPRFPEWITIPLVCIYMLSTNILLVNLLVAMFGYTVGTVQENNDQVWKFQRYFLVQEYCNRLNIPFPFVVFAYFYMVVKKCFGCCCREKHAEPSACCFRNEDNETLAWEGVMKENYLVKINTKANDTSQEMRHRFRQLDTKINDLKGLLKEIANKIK

Compound	IC50	inhibition at 0.2 µM	% Inh @ 0.2 (μM)
COC(C)(C)CCN(c1sc2ccccc2c1Br)S(=O)(=O)c1ccc(C(=O)O)cc1 [Compound 454, N-(3-Bromo-benzo[b]thiophen-2-yl)-N-(3-methoxy-3-methylbutyl)-4-carboxy-benzenesulfonamide]	0.004 µM	101%	
Cc1c(N(Cc2ccc(F)c(C(F)(F)F)c2)S(=O)(=O)c2cccc(-c3nnn[nH]3)c2)sc2ccccc12 [Compound 455, N-(3-Methyl-benzo[b]thiophen-2-yl)-N-(4-fluoro-3-trifluoromethyl-benzyl)-3-(1H-tetrazol-5-yl)-benzenesulfonamide]	0.036 µM	101%	
O=C(O)c1ccc(S(=O)(=O)N(CCC(F)(F)F)c2cc3ccccc3s2)cc1 [Compound 456, N-(Benzo[b]thiophen-2-yl)-N-(3,3,3-trifluoro-propyl)-4-carboxy-benzenesulfonamide]		67%	
CN(C)C(=O)c1c(N(Cc2ccc(F)c(C(F)(F)F)c2)S(=O)(=O)c2ccccc2)sc2ccccc12 [Compound 457, N-(3-Dimethyl-carbamoyl-benzo[b]thiophen-2-yl)-N-(4-fluoro-3-trifluoromethyl-benzyl)-benzenesulfonamide]	0.047 µM		93%
CNC(=O)c1c(N(Cc2ccc(F)c(C(F)(F)F)c2)S(=O)(=O)c2ccccc2)sc2ccccc12 [Compound 458, N-(3-Methyl-carbamoyl-benzo[b]thiophen-2-yl)-N-(4-fluoro-3-trifluoromethyl-benzyl)-benzenesulfonamide]	0.012 µM		102%
NC(=O)c1c(N(Cc2ccc(F)c(C(F)(F)F)c2)S(=O)(=O)c2ccccc2)sc2ccccc12 [Compound 459, N-(3-Carbamoyl-benzo[b]thiophen-2-yl)-N-(4-fluoro-3-trifluoromethyl-benzyl)-benzenesulfonamide]	0.009 µM	102%	
CC(=O)C1=C(N(Cc2ccc(F)c(C(F)(F)F)c2)S(=O)(=O)c2ccccc2)S(=O)(=O)c2ccccc21 [Compound 460, N-(3-Acetyl-1,1-dioxo-1H-benzo[b]thiophen-2-yl)-N-(4-fluoro-3-trifluoromethyl-benzyl)-benzenesulfonamide]	0.008 µM	102%	
CN(C)S(=O)(=O)c1cccc(S(=O)(=O)N(CCC(F)(F)F)c2cc3ccccc3s2)c1 [Compound 461, N-(Benzo[b]thiophen-2-yl)-N-(3,3,3-trifluoro-propyl)-3-dimethylsulfamoyl-benzenesulfonamide]		30%	
CN(C)S(=O)(=O)c1cccc(S(=O)(=O)N(Cc2ccc(F)c(C(F)(F)F)c2)c2cc3ccccc3s2)c1 [Compound 462, N-(Benzo[b]thiophen-2-yl)-N-(4-fluoro-3-trifluoromethyl-benzyl)-3-N′,N′-dimethylsulfamoyl-benzenesulfonamide]			22%
CC(C)(O)C1=C(N(Cc2ccc(F)c(C(F)(F)F)c2)S(=O)(=O)c2ccccc2)S(=O)(=O)c2ccccc21 [Compound 463, N-(4-Fluoro-3-trifluoromethyl-benzyl)-N-[3-(1-hydroxy-1-methyl-ethyl)-1,1-dioxo-benzo[b]thiophen-2-yl]-benzenesulfonamide]	0.026 µM	101%	
CC(O)C1=C(N(Cc2ccc(F)c(F)c2)S(=O)(=O)c2ccccc2)S(=O)(=O)c2ccccc21 (centres unmarked) [Compound 464, N-(3,4-Difluoro-benzyl)-N-[3-(1-hydroxy-ethyl)-1,1-dioxo-benzo[b]thiophen-2-yl]-benzenesulfonamide]	0.007 µM	102%	
CCCCN(c1sc2ccccc2c1C(N)=O)S(=O)(=O)c1ccc(C(=O)OC)cc1 [Compound 465, N-(Butyl)-N-(3-carbamoyl-benzo[b]thiophen-2-yl)-4-carbomethoxy-benzenesulfonamide]	0.063 µM	90%	
CCCCN(c1sc2ccccc2c1C(=O)NC)S(=O)(=O)c1ccc(C(=O)OC)cc1 [Compound 466, N-(Butyl)-N-(3-methyl-carbamoyl-benzo[b]thiophen-2-yl)-4-carbomethoxy-benzenesulfonamide]			66%
CCCCN(c1sc2ccccc2c1C(=O)N(C)C)S(=O)(=O)c1ccc(C(=O)OC)cc1 [Compound 467, N-(Butyl)-N-(3-dimethyl-carbamoyl-benzo[b]thiophen-2-yl)-4-carbomethoxy-benzenesulfonamide]	0.02 µM		100%
CCCCN(c1sc2ccccc2c1C(N)=O)S(=O)(=O)c1ccc(C(=O)O)cc1 [Compound 468, N-(Butyl)-N-(3-carbamoyl-benzo[b]thiophen-2-yl)-4-carboxy-benzenesulfonamide]		16%	
CCCCN(c1sc2ccccc2c1C(=O)N(C)C)S(=O)(=O)c1ccc(C(=O)O)cc1 [Compound 469, N-(Butyl)-N-(3-dimethylcarbamoyl-benzo[b]thiophen-2-yl)-4-carboxy-benzenesulfonamide]		13%	
CCCCN(c1cc2ccccc2s1)S(=O)(=O)c1ccc(C2=NOS(=O)N2)cc1 (centres unmarked) [Compound 470, N-(Benzo[b]thiophen-2-yl)-N-(butyl)-4-(3H-[1,2,3,5]oxathiadiazole-2-oxide)-benzenesulfonamide]			15%

Compound	IC50	inhibition at 0.2 µM	% Inh @ 0.2 (μM)
CCCCN(c1cc2ccccc2s1)S(=O)(=O)c1ccc(C(N)=NO)cc1 [Compound 471, N-(Benzo[b]thiophen-2-yl)-N-(butyl)-4-N-hydroxy-benzamidinesulfonamide]	0.059 µM		97%
CCCCN(c1cc2ccccc2s1)S(=O)(=O)c1ccc(C(N)=NC(=O)CO)cc1 [Compound 472, N-(Benzo[b]thiophen-2-yl)-N-(butyl)-4-N-hydroxyacetyl-benzamidine sulfonamide]	0.04 µM		88%
CCCCN(c1sc2ccccc2c1Br)S(=O)(=O)c1ccc(C(N)=NO)cc1 [Compound 473, N-(3-Bromo-benzo[b]thiophen-2-yl)-N-(butyl)-4-N-hydroxy-benzamidinesulfonamide]	0.009 µM		102%
O=S(=O)(c1ccc(-c2nnn[nH]2)cc1)N(CC1CC1)c1sc2ccccc2c1Br [Compound 474, N-(3-Bromo-benzo[b]thiophen-2-yl)-N-(cyclopropyl-methyl)-4-(1H-tetrazol-5-yl)-benzenesulfonamide]	0.008 µM	101%	
O=S(=O)(c1ccc(-c2nnn[nH]2)cc1)N(Cc1ccc(F)c(C(F)(F)F)c1)c1sc2ccccc2c1Br [Compound 475, N-(3-Bromo-benzo[b]thiophen-2-yl)-N-(4-fluoro-3-trifluoromethyl-benzyl)-4-(1H-tetrazol-5-yl)-benzenesulfonamide]	0.002 µM	102%	
O=S(=O)(c1ccc(Br)cc1)N(CCC(F)(F)F)c1cc2ccccc2s1 [Compound 476, N-(Benzo[b]thiophen-2-yl)-4-(bromo)-N-(3,3,3-trifluoro-propyl)-benzenesulfonamide]		39%	
CCCCN(c1sc2ccccc2c1Cl)S(=O)(=O)c1ccc(C(=O)O)cc1 [Compound 477, N-(3-Chloro-benzo[b]thiophen-2-yl)-N-(butyl)-4-carboxy-benzenesulfonamide]	0.012 µM	100%	
O=C(O)c1ccc(S(=O)(=O)N(CC2CC2)c2sc3ccccc3c2Cl)cc1 [Compound 478, N-(3-Chloro-benzo[b]thiophen-2-yl)-N-(cyclopropylmethyl)-4-carboxy-benzenesulfonamide]	0.025 µM	99%	
O=C(O)c1ccc(S(=O)(=O)N(CCC(F)(F)F)c2sc3ccccc3c2Cl)cc1 [Compound 480, N-(3-Chloro-benzo[b]thiophen-2-yl)-N-(3,3,3-trifluoro-propyl)-4-carboxy-benzenesulfonamide]	0.013 µM	100%	
CCCCN(c1sc2ccccc2c1Br)S(=O)(=O)c1ccc(-c2noc(=S)[nH]2)cc1 [Compound 481, N-(3-Bromo-benzo[b]thiophen-2-yl)-N-(butyl)-4-(5-thioxo-4,5-dihydro-[1,2,4]oxadiazol-3-yl)-benzenesulfonamide]		69%	
N/C(=N\O)c1ccc(S(=O)(=O)N(Cc2ccc(F)c(C(F)(F)F)c2)c2cc3ccccc3s2)cc1 [Compound 482, N-(Benzo[b]thiophen-2-yl)-N-(4-fluoro-3-trifluoromethyl-benzyl)-4-N-hydroxy-benzamidinesulfonamide]	0.024 µM		100%
O=c1[nH]c(-c2ccc(S(=O)(=O)N(Cc3ccc(F)c(C(F)(F)F)c3)c3cc4ccccc4s3)cc2)no1 [Compound 483, N-(Benzo[b]thiophen-2-yl)-N-(4-fluoro-3-trifluoromethyl-benzyl)-4-(5-oxo-4,5-dihydro-[1,2,4]oxadiazol-3-yl)-benzenesulfonamide]	0.009 µM	101%	
CCCCN(c1sc2ccccc2c1Br)S(=O)(=O)c1ccc(C2=NOS(=O)N2)cc1 (centres unmarked) [Compound 484, N-(3-Bromo-benzo[b]thiophen-2-yl)-N-(butyl)-4-(3H-[1,2,3,5]oxathiadiazole-2-oxide)-benzenesulfonamide]	0.021 µM		100%
CCCCN(c1sc2ccccc2c1Cl)S(=O)(=O)c1ccc(C2=NOS(=O)N2)cc1 (centres unmarked) [Compound 485, N-(3-Chloro-benzo[b]thiophen-2-yl)-N-(butyl)-4-(3H-[1,2,3,5]oxathiadiazole-2-oxide)-benzenesulfonamide]	0.021 µM		96%
Cc1c(N(Cc2ccccc2)S(=O)(=O)c2ccc(C(=O)O)cc2)sc2ccccc12 [Compound 486, N-(3-Methyl-benzo[b]thiophen-2-yl)-N-(benzyl)-4-carboxy-benzenesulfonamide]		100%	
Cc1c(N(Cc2cccc(C(F)(F)F)c2)S(=O)(=O)c2ccc(C(=O)O)cc2)sc2ccccc12 [Compound 491, N-(3-Methyl-benzo[b]thiophen-2-yl)-N-(3-trifluoromethyl-benzyl)-4-carboxy-benzenesulfonamide]	0.001 µM	101%	
